Measured values published in ChEMBL document CHEMBL4033637, “Developing DYRK inhibitors derived from the meridianins as a means of increasing levels of NFAT in the nucleus” (Bioorg Med Chem Lett, 2017).

Columns and labels:
[1] = biological target: Glycogen synthase kinase-3 beta (Homo sapiens, UniProt P49841); assay: Inhibition of full-length recombinant human His-tagged GSK3B recombinant in baculovirus expression system using Alexa-Fluor tracer-236 incubated for 60 mins by TR-FRET based Lantha-screen Eu kinase assay
Sequence of Glycogen synthase kinase-3 beta (P49841 whole entry): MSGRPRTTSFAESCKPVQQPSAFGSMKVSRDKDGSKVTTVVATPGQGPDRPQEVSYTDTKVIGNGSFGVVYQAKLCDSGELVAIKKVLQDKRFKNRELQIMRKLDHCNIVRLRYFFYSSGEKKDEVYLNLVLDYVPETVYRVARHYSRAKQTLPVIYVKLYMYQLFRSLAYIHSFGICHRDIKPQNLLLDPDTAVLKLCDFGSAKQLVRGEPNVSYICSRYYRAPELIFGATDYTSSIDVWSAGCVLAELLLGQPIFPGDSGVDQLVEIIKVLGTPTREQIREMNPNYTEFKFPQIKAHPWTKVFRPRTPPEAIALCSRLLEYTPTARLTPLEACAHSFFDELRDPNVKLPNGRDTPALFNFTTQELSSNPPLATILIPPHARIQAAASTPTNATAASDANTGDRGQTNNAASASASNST

[2] = biological target: Dual specificity tyrosine-phosphorylation-regulated kinase 1A (Homo sapiens, UniProt Q13627)
[3] = Induction of nuclear localization of GFP-tagged NFAT (unknown origin) expressed in mouse muscle fibres by DAPI staining based assay

SMILES | IC50 ([1]; read-out: IC50) | IC50 [2] | IC50 [1] | EC50 [3]
Nc1nccc(-c2c[nH]c3c([N+](=O)[O-])cccc23)n1 | 9950 nM | – | – | –
Nc1nccc(-c2c[nH]c3c(Br)cccc23)n1 | 22400 nM | 79 nM | – | –
Cc1nccc(-c2c[nH]c3cnccc23)n1 | – | 19 nM | Not Active | –
CC(C)n1cc(-c2ccncc2)c2ccncc21 | 660 nM | 8 nM | – | 2800 nM
Nc1nccc(-c2c[nH]c3cc(Cl)ccc23)n1 | 10700 nM | 406 nM | – | –
N#Cc1cccc2c(-c3ccnc(N)c3)c[nH]c12 | 13900 nM | 790 nM | – | –
c1ccc2c(-c3c[nH]c4cnccc34)ccnc2c1 | – | 277 nM | Not Active | –
COc1cccc2c(-c3ccnc(N)c3)c[nH]c12 | – | 2140 nM | Not Active | –
Nc1cc(-c2c[nH]c3cc(Cl)ccc23)ccn1 | – | 2940 nM | Not Active | –
Fc1ccc(Cn2cc(-c3ccncc3)c3ccncc32)cc1 | 1010 nM | 12 nM | – | –
N#Cc1cccc2c(-c3ccnc(N)n3)c[nH]c12 | 5160 nM | 138 nM | – | –
Nc1nccc(-c2c[nH]c3c(Cl)cccc23)n1 | – | 46 nM | Not Active | –
Nc1cc(-c2c[nH]c3cnccc23)ccn1 | – | 2020 nM | Not Active | –
Clc1cnccc1-c1c[nH]c2cnccc12 | 9610 nM | 61 nM | – | –
Cn1cc(-c2ccncc2)c2ccncc21 | 4780 nM | 89 nM | – | –
Nc1nccc(-c2c[nH]c3cnccc23)n1 | 12300 nM | 1 nM | – | –

SMILES | IC50 ([1]; read-out: IC50) | IC50 [2] | IC50 [1] | EC50 [3]
Cc1cc(-c2c[nH]c3cnccc23)ccn1 | – | 75 nM | Not Active | –
c1cc(-c2c[nH]c3cnccc23)ccn1 | 9230 nM | 1 nM | – | –
Nc1cc(-c2c[nH]c3c(Cl)cccc23)ccn1 | – | 94 nM | Not Active | –
Nc1nccc(-c2c[nH]c3cc(C(F)(F)F)ccc23)n1 | 15300 nM | 62 nM | – | –
COc1cccc2c(-c3ccnc(N)n3)c[nH]c12 | 15800 nM | 242 nM | – | –
Nc1cc(-c2c[nH]c3c([N+](=O)[O-])cccc23)ccn1 | – | 285 nM | Not Active | –
COc1cc(-c2c[nH]c3cnccc23)ccn1 | – | 351 nM | Not Active | –
COc1ccc2c(-c3ccnc(N)n3)c[nH]c2c1 | 7960 nM | 443 nM | – | –
c1cc(-c2cn(CCCN3CCOCC3)c3cnccc23)ccn1 | 7580 nM | 109 nM | – | –
COc1ccc2c(-c3ccnc(N)c3)c[nH]c2c1 | 12700 nM | 2900 nM | – | –
Fc1cc(-c2c[nH]c3cnccc23)ccn1 | – | 69 nM | Not Active | –
c1cncc(-c2c[nH]c3cnccc23)c1 | 31000 nM | 7960 nM | – | –
Nc1cc(-c2c[nH]c3cc(C(F)(F)F)ccc23)ccn1 | – | 4340 nM | Not Active | –
c1cc(-c2cn(CCC3CC3)c3cnccc23)ccn1 | 1140 nM | 8 nM | – | –
Nc1nccc(-c2c[nH]c3ccccc23)n1 | 14800 nM | 588 nM | – | –
COc1ccc2c(c1)[nH]c1c(C)nccc12 [HARMINE] | – | – | Not Active | –
